Test results published in ChEMBL document CHEMBL5370533 (Eur J Med Chem, 2023).
pIC50: −log10 of the molar value.

Experiments:
[1] = biological target: T1, Cyclin-dependent kinase 2 (Homo sapiens, UniProt P24941); assay: Inhibition of human CDK2 assessed as enzyme activity at 0.123 uM pretreated for 20 mins followed by [gamma-33P]-ATP addition and measured after 120 mins in presence of 10 uM ATP by radiometric Hot-SpotSM Kinase assay; design: scale not given: the % may be the effect or the level left; settings: time 140.0 min
[2] = biological target: T2, Receptor-type tyrosine-protein kinase FLT3 (Homo sapiens, UniProt P36888); assay: Inhibition of human FLT3 using EAIYAAPFAKKK and [gamma-33P]-ATP as substrate pretreated for 20 mins followed by [gamma-33P]-ATP addition and measured after 120 mins in presence of 10 uM ATP by radiometric Hot-SpotSM Kinase assay
T2 sequence (P36888 whole entry): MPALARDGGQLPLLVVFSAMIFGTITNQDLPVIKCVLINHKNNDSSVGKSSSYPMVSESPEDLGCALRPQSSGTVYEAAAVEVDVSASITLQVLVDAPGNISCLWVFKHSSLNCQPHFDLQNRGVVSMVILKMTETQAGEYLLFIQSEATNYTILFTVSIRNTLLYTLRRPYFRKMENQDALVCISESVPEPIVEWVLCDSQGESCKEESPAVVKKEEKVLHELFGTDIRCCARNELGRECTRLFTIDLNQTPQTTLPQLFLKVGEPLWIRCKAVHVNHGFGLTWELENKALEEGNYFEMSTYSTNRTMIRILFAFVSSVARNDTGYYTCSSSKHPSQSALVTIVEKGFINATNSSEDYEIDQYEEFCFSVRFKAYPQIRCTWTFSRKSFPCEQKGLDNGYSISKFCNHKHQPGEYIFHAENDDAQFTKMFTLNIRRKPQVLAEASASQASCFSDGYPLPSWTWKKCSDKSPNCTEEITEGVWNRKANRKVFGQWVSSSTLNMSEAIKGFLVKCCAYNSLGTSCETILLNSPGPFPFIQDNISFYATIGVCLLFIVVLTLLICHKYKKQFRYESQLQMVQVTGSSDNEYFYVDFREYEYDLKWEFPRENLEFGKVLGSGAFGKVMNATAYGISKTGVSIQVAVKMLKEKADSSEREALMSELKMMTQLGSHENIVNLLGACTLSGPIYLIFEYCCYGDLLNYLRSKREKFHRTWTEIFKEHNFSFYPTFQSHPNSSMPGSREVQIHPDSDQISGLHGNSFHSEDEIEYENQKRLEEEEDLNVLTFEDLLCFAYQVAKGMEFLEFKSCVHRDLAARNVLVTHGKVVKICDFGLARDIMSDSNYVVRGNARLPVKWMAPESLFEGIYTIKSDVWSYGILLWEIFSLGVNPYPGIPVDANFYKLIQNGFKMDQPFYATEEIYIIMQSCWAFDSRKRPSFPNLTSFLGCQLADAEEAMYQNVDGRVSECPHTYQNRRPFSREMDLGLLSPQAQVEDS

[3] = biological target: T3, Cyclin-dependent kinase 6 (Homo sapiens, UniProt Q00534); assay: Inhibition of human CDK6 assessed as enzyme activity at 0.123 uM pretreated for 20 mins followed by [gamma-33P]-ATP addition and measured after 120 mins in presence of 10 uM ATP by radiometric Hot-SpotSM Kinase assay; design: scale not given: the % may be the effect or the level left; settings: time 140.0 min
T3 sequence (Q00534 whole entry): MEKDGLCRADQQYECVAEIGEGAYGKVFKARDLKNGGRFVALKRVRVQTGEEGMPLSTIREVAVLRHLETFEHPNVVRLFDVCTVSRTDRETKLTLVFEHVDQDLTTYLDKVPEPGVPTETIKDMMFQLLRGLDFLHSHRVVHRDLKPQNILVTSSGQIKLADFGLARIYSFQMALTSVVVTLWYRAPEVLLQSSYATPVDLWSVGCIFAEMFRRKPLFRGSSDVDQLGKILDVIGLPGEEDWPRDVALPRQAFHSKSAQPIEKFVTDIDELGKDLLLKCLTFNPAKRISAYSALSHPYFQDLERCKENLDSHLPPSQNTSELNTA

[4] = biological target: Receptor-type tyrosine-protein kinase FLT3 (Homo sapiens) (UniProt P36888); assay: Inhibition of human FLT3 assessed as enzyme activity using EAIYAAPFAKKK and [gamma-33P]-ATP as substrate at 0.123 uM pretreated for 20 mins followed by [gamma-33P]-ATP addition and measured after 120 mins in presence of 10 uM ATP by radiometric Hot-SpotSM Kinase assay; design: scale not given: the % may be the effect or the level left; settings: time 140.0 min
MOLM-13 = assay: Antiproliferative activity against human MOLM-13 cells harboring FLT3 ITD mutant assessed as inhibition of cell growth; format: functional, cell-based
K562 = assay: Antiproliferative activity against human K562 cells deficit of oncogenic FLT3 assessed as inhibition of cell growth; format: functional, cell-based
BaF3 [5] = assay: Antiproliferative activity against mouse BaF3 cells harboring FLT3 D835V mutant assessed as inhibition of cell growth incubated for 72 hrs; format: functional, cell-based; settings: BaF3, 72 h
U-937 = assay: Antiproliferative activity against human U-937 cells expressing low level wild type FLT3 assessed as inhibition of cell growth; format: functional, cell-based
[6] = Cytotoxicity against human PBMC cells assessed as inhibition of cell growth; format: toxicity, cell-based
[7] = Cytotoxicity against mouse BaF3 cells assessed as inhibition of cell growth incubated for 72 hrs; format: toxicity, cell-based
BaF3 [8] = assay: cells; format: functional, cell-based; settings: Mus musculus, BaF3, 72 h
Description: Antiproliferative activity against mouse BaF3 cells harboring FLT3 ITD mutant assessed as inhibition of cell growth incubated for 72 hrs

BaF3 [9] = assay: cells; format: functional, cell-based; settings: Mus musculus, BaF3, 72 h; remark: listed apart in the source
Description: Antiproliferative activity against mouse BaF3 cells harboring FLT3 ITD/D835V mutant assessed as inhibition of cell growth incubated for 72 hrs

THP-1 = assay: Antiproliferative activity against human THP-1 cells expressing wild type FLT3 assessed as inhibition of cell growth; format: functional, cell-based
HL-60 = assay: Antiproliferative activity against human HL-60 cells expressing low level wild type FLT3 assessed as inhibition of cell growth; format: functional, cell-based
MV4-11 [10] = assay: Antiproliferative activity against human MV4-11 cells harboring FLT3 ITD mutant assessed as inhibition of cell growth incubated for 72 hrs by CellTiter-Glo luminescent assay; format: functional, cell-based; settings: MV4-11, 72 h
[11] = Toxicity against nu/nu mouse xenografted with human MV4-11 cells assessed as animal's mortality at 50 mg/kg, po qd for 2 days; format: organism-based; settings: in vivo, 48 h, time 2 day
[12] = Toxicity against nu/nu mouse xenografted with human MV4-11 cells assessed as decrease in body weight at 50 mg/kg, po qd for 2 weeks; format: organism-based; settings: in vivo, 336 h
BaF3 [13] = assay: cells; format: functional, cell-based; settings: Mus musculus, BaF3, 72 h; remark: listed apart in the source
Description: Antiproliferative activity against mouse BaF3 cells harboring FLT3 ITD/F691L mutant assessed as inhibition of cell growth incubated for 72 hrs

MV4-11 [14] = assay: animal or person; format: functional, Homo sapiens; settings: Mus musculus, MV4-11, 336 h, route po, time 2 weeks
Description: Antitumor activity against human MV4-11 cells xenografted in nu/nu mouse assessed as inhibition of tumor growth at 50 mg/kg, po qd for 2 weeks by vernier caliper analysis

BaF3 [15] = assay: cells; format: functional, cell-based; settings: Mus musculus, BaF3, 72 h; remark: listed apart in the source
Description: Antiproliferative activity against mouse BaF3 cells harboring FLT3 ITD/N676D mutant assessed as inhibition of cell growth incubated for 72 hrs

[16] = biological target: T1, Cyclin-dependent kinase 2; assay: Inhibition of human CDK2 pretreated for 20 mins followed by [gamma-33P]-ATP addition and measured after 120 mins in presence of 10 uM ATP by radiometric Hot-SpotSM Kinase assay
[17] = biological target: T3, Cyclin-dependent kinase 6; assay: Inhibition of human CDK6 pretreated for 20 mins followed by [gamma-33P]-ATP addition and measured after 120 mins in presence of 10 uM ATP by radiometric Hot-SpotSM Kinase assay

| SMILES | Activity [1] [%] | pIC50 [2] | Activity [3] [%] | pIC50 (MV4-11 [10]) | further results |
| --- | --- | --- | --- | --- | --- |
| Cc1cnc(Nc2c[nH]nc2C(=O)Nc2ccc(N3CCNCC3)cc2)nc1Oc1ccccc1 | 88.6 |  | 88.4 |  | Activity [4]: 83% |
| O=C(Nc1ccc(N2CCNCC2)cc1)c1n[nH]cc1Nc1cc(-c2ccccc2)ncn1 | 89.3 | 7.34 | 101 |  |  |
| CC(C)(C)c1cc(NC(=O)Nc2ccc(-c3cn4c(n3)sc3cc(OCCN5CCOCC5)ccc34)cc2)no1 [QUIZARTINIB] |  |  |  | 8.28 | pIC50 (MOLM-13): 7.82; pIC50 (K562): 6.54; pIC50 (BaF3 [5]): 7.00; pIC50 (U-937): 6.60; pIC50 [6]: 5.90; IC50 at 72 h [7]: > 10000 nM; pIC50 (BaF3 [8]): 9.00; pIC50 (BaF3 [9]): 7.03; pIC50 (THP-1): 6.70; pIC50 (HL-60): 6.11 |
| O=C(Nc1ccc(CN2CCOCC2)cc1)c1n[nH]cc1Nc1cc(C2CCCC2)ncn1 | 71.4 | 7.53 | 92.6 | 6.68 |  |
| O=C(Nc1ccc(N2CCNCC2)cc1)c1n[nH]cc1Nc1cc(C2CCCCCC2)ncn1 | 84.8 | 7.54 | 94.3 |  |  |
| O=C(Nc1ccc(N2CCNCC2)cc1)c1n[nH]cc1Nc1cc(-c2ccoc2)ncn1 | 83.5 | 7.38 | 87.5 |  |  |
| CN1CCN(Cc2ccc(NC(=O)c3n[nH]cc3Nc3ncnc4[nH]ccc34)cc2)CC1 |  |  |  | 8.15 | Activity [11]: Toxic; pIC50 (MOLM-13): 8.27; pIC50 (K562): 6.10; pIC50 (BaF3 [5]): 7.41; Activity [12]: Toxic; pIC50 [6]: 6.90; IC50 at 72 h [7]: 155 nM; pIC50 (BaF3 [8]): 7.42; pIC50 (BaF3 [9]): 8.10; pIC50 (BaF3 [13]): 7.25; inhibition in vivo at 50 mg/kg (MV4-11 [14]): 94.6%; pIC50 (HL-60): 6.11; pIC50 (BaF3 [15]): 7.14 |
| O=C(Nc1ccc(N2CCOCC2)cc1)c1n[nH]cc1Nc1cc(C2CCCC2)ncn1 | 83.3 | 7.23 | 93.3 |  |  |
| CO[C@@H]1[C@H](N(C)C(=O)c2ccccc2)C[C@H]2O[C@]1(C)n1c3ccccc3c3c4c(c5c6ccccc6n2c5c31)C(=O)NC4 [MIDOSTAURIN] |  |  |  |  | pIC50 (BaF3 [5]): 8.40; IC50 at 72 h [7]: 320 nM |
| Cc1cc(Oc2ccccc2)nc(Nc2c[nH]nc2C(=O)Nc2ccc(N3CCNCC3)cc2)n1 | 78.3 |  | 91.5 |  | Activity [4]: 71.7% |

Second part, led by results:

| Activity [1] [%] | pIC50 [2] | Activity [3] [%] | pIC50 (MV4-11 [10]) | SMILES | further results |
| --- | --- | --- | --- | --- | --- |
| 82.3 | 7.95 | 88.8 |  | Cc1nc(Nc2c[nH]nc2C(=O)Nc2ccc(N3CCNCC3)cc2)cc(Oc2ccccc2)n1 |  |
| 69.5 | 7.67 | 72.9 | 7.00 | O=C(Nc1ccc(N2CCNCC2)cc1)c1n[nH]cc1Nc1cc(NC2CCCC2)ncn1 |  |
| 51 | 7.95 | 51.3 | 7.05 | O=C(Nc1ccc(N2CCNCC2)cc1)c1n[nH]cc1Nc1cc(OCC2CCCC2)ncn1 |  |
|  | 8.14 |  |  | CN1CCN(Cc2ccc(NC(=O)c3n[nH]cc3Nc3ccncn3)cc2)CC1 | pIC50 [16]: 7.64; pIC50 [17]: 7.84 |
| 78.8 | 7.71 | 88.9 | 6.70 | CN1CCN(Cc2ccc(NC(=O)c3n[nH]cc3Nc3cc(C4CCCC4)ncn3)cc2)CC1 |  |
| 53.1 | 7.72 | 58.4 | 6.89 | O=C(Nc1ccc(N2CCNCC2)cc1)c1n[nH]cc1Nc1cc(OC2CCCCC2)ncn1 |  |
| 76.5 | 7.60 | 86.4 |  | O=C(Nc1ccc(N2CCNCC2)cc1)c1n[nH]cc1Nc1cc(C2=CCOCC2)ncn1 |  |
|  | 8.07 |  | 7.10 | O=C(Nc1ccc(N2CCNCC2)cc1)c1n[nH]cc1Nc1cc(C2CC2)ncn1 | pIC50 [16]: 6.71; pIC50 [17]: 6.90 |
|  | 8.11 |  | 6.96 | O=C(Nc1ccc(N2CCNCC2)cc1)c1n[nH]cc1Nc1cc(OC2CCCC2)ncn1 | pIC50 [16]: 6.87; pIC50 [17]: 6.80 |
| 54.6 | 7.54 | 58.1 |  | O=C(Nc1ccc(N2CCNCC2)cc1)c1n[nH]cc1Nc1cc(OC2CCCCCC2)ncn1 |  |
| 79.3 | 7.81 | 86.3 | 7.00 | O=C(Nc1ccc(N2CCNCC2)cc1)c1n[nH]cc1Nc1cc(C2CCCC2)ncn1 |  |
